From patent US9822114B2, “Tricyclic oxazolidinone antibiotic compounds” (Idorsia Pharmaceuticals Ltd, priority 2008, dated 2017)
Values after ≈ are worked out from the molar mass of the structure shown.

System: M. catarrhalis A894
Test: Minimal inhibitory concentration (MIC), microdilution method in cation-adjusted Mueller-Hinton Broth (CLSI M7-A7)
Format: cell-based
Settings: strain A894; for MIC: Moraxella catarrhalis
Procedure: Minimal inhibitory concentrations (MICs; mg/1) were determined in cation-adjusted Mueller-Hinton Broth by a microdilution method following the description given in “Methods for Dilution Antimicrobial Susceptibility Tests for Bacteria that Grow Aerobically”, Approved standard, 7th ed., Clinical and Laboratory Standards Institute (CLSI) Document M7-A7, Wayne, Pa., USA, 2006.

O=C1CSc2ccc(N3C[C@@H](CCCNC4Cn5c(=O)ccc6ccc(F)c4c65)OC3=O)cc2N1 (mixture of isomers) [Example 13, (1RS)-9-fluoro-1-{3-[(R)-2-oxo-3-(3-oxo-3,4-dihydro-2H-benzo[1,4]thiazin-6-yl)-oxazolidin-5-yl]-propylamino}-1,2-dihydro-pyrrolo[3,2,1-ij]quinolin-4-one]
MIC: ≤ 0.031 µg/mL

O=C1CSc2ccc(N3C[C@H](CCN[C@@H]4Cn5c(=O)ccc6cccc4c65)OC3=O)cc2N1 [Example 88, (S)-1-{2-[(S)-2-oxo-3-(3-oxo-3,4-dihydro-2H-benzo[1,4]thiazin-6-yl)-oxazolidin-5-yl]-ethylamino}-1,2-dihydro-pyrrolo[3,2,1-ij]quinolin-4-one]
MIC: ≤ 0.031 µg/mL

O=C1COc2ccc(N3C[C@H](CCCN[C@H]4Cn5c(=O)ccc6cccc4c65)OC3=O)nc2N1 [Example 135, (R)-1-{3-[(S)-2-oxo-3-(3-oxo-3,4-dihydro-2H-pyrido[3,2-b][1,4]oxazin-6-yl)-oxazolidin-5-yl]-propylamino}-1,2-dihydro-pyrrolo[3,2,1-ij]quinolin-4-one]
MIC: ≤ 0.031 µg/mL

O=C1CSc2ccc(N3C[C@@H](CCCN[C@H]4Cn5c(=O)ccc6ccc(F)c4c65)OC3=O)cc2N1 [Example 127, (R)-9-fluoro-1-{3-[(R)-2-oxo-3-(3-oxo-3,4-dihydro-2H-benzo[1,4]thiazin-6-yl)-oxazolidin-5-yl]-propylamino}-1,2-dihydro-pyrrolo[3,2,1-ij]quinolin-4-one]
MIC: ≤ 0.031 µg/mL

O=C1COc2ccc(N3C[C@@H](CCCN[C@@H]4Cn5c(=O)ccc6ncc(F)c4c65)OC3=O)cc2N1 [Example 146, (S)-3-fluoro-4-{3-[(R)-2-oxo-3-(3-oxo-3,4-dihydro-2H-benzo[1,4]oxazin-6-yl)-oxazolidin-5-yl]-propylamino}-4,5-dihydro-pyrrolo[3,2,1-de][1,5]naphthyridin-7-one]
MIC: ≤ 0.031 µg/mL

Cl.O=C1CSc2ccc(N3C[C@H](CCCN[C@H]4Cn5c(=O)ccc6c(C(=O)O)ccc4c65)OC3=O)cc2N1 [Example 121, (R)-4-oxo-1-{3-[(S)-2-oxo-3-(3-oxo-3,4-dihydro-2H-benzo[1,4]thiazin-6-yl)-oxazolidin-5-yl]-propylamino}-1,2-dihydro-4H-pyrrolo[3,2,1-ij]quinoline-7-carboxylic acid hydrochloride]
MIC: 0.125 µg/mL

N—((RS)-9-fluoro-4-oxo-1,2-dihydro-4H-pyrrolo[3,2,1-ij]quinolin-1-yl)-N-{3-[(R)-2-oxo-3-(3-oxo-3,4-dihydro-2H-benzo[1,4]thiazin-6-yl)-oxazolidin-5-yl]-propyl}-acetamide and (RS)-1-{3-[(R)-3-(4-acetyl-3-oxo-3,4-dihydro-2H-benzo[1,4]thiazin-6-yl)-2-oxo-oxazolidin-5-yl]-propylamino}-9-fluoro-1,2-dihydro-pyrrolo[3,2,1-ij]quinolin-4-one [Example 172]
MIC for M. catarrhalis A894: 0.25 µg/mL

O=C1CSc2ccc(N3C[C@H](CCCN[C@H]4Cn5c(=O)ccc6ncc(F)c4c65)OC3=O)cc2N1 [Example 139, (R)-3-fluoro-4-{3-[(S)-2-oxo-3-(3-oxo-3,4-dihydro-2H-benzo[1,4]thiazin-6-yl)-oxazolidin-5-yl]-propylamino}-4,5-dihydro-pyrrolo[3,2,1-de][1,5]naphthyridin-7-one]
MIC: ≤ 0.031 µg/mL

O=C1CSc2ccc(N3C[C@@H](CCCNC4Cn5c(=O)ccc6ccc(Cl)c4c65)OC3=O)nc2N1 (mixture of isomers) [Example 177, (RS)-9-chloro-1-{3-[(R)-2-oxo-3-(3-oxo-3,4-dihydro-2H-pyrido[3,2-b][1,4]thiazin-6-yl)-oxazolidin-5-yl]-propylamino}-1,2-dihydro-pyrrolo[3,2,1-ij]quinolin-4-one]
MIC: ≤ 0.031 µg/mL

O=C1CSc2ccc(N3C[C@@H](CCN[C@H]4Cn5c(=O)ccc6cccc4c65)OC3=O)cc2N1 [Example 158, (R)-1-{2-[(R)-2-oxo-3-(3-oxo-3,4-dihydro-2H-benzo[1,4]thiazin-6-yl)-oxazolidin-5-yl]-ethylamino}-1,2-dihydro-pyrrolo[3,2,1-ij]quinolin-4-one]
MIC: ≤ 0.031 µg/mL

O=C1COc2ccc(N3C[C@@H](CCCN[C@@H]4Cn5c(=O)ccc6nccc4c65)OC3=O)cc2N1 [Example 40, (S)-4-{3-[(R)-2-oxo-3-(3-oxo-3,4-dihydro-2H-benzo[1,4]oxazin-6-yl)-oxazolidin-5-yl]-propylamino}-4,5-dihydro-pyrrolo[3,2,1-de][1,5]naphthyridin-7-one]
MIC: 0.125 µg/mL (≈ 0.271 µM)

O=C1COc2ccc(N3C[C@@H](CCCN[C@@H]4Cn5c(=O)ccc6cccc4c65)OC3=O)cc2N1 [Example 73, (S)-1-{3-[(R)-2-oxo-3-(3-oxo-3,4-dihydro-2H-benzo[1,4]oxazin-6-yl)-oxazolidin-5-yl]-propylamino}-1,2-dihydro-pyrrolo[3,2,1-ij]quinolin-4-one]
MIC: ≤ 0.031 µg/mL

O=C1CSc2ccc(N3C[C@H](CCCN[C@@H]4CN5C(=O)CNc6ccc(F)c4c65)OC3=O)cc2N1 [Example 160, (S)-7-fluoro-6-{3-[(S)-2-oxo-3-(3-oxo-3,4-dihydro-2H-benzo[1,4]thiazin-6-yl)-oxazolidin-5-yl]-propylamino}-1,2,5,6-tetrahydro-pyrrolo[1,2,3-de]quinoxalin-3-one]
MIC: ≤ 0.031 µg/mL

O=C1CSc2ccc(N3C[C@H](CCCNC4Cn5c(=O)ccc6ncc(F)c4c65)OC3=O)cc2N1 (mixture of isomers) [Example 96, (RS)-3-fluoro-4-{3-[(S)-2-oxo-3-(3-oxo-3,4-dihydro-2H-benzo[1,4]thiazin-6-yl)-oxazolidin-5-yl]-propylamino}-4,5-dihydro-pyrrolo[3,2,1-de][1,5]naphthyridin-7-one]
MIC: ≤ 0.031 µg/mL

C[C@H]1[C@H](NCCC[C@@H]2CN(c3ccc4c(c3)NC(=O)CS4)C(=O)O2)c2c(F)ccc3ccc(=O)n1c23 (relative stereo) [Example 183, (1R*,2S*)-9-fluoro-2-methyl-1-{3-[(R)-2-oxo-3-(3-oxo-3,4-dihydro-2H-benzo[1,4]thiazin-6-yl)-oxazolidin-5-yl]-propylamino}-1,2-dihydro-pyrrolo[3,2,1-ij]quinolin-4-one]
MIC: ≤ 0.031 µg/mL

O=C1CSc2ccc(N3C[C@H](CNCC4Cn5c(=O)cnc6cccc4c65)OC3=O)cc2N1 (mixture of isomers) [Example 106, (RS)-6-({[(S)-2-oxo-3-(3-oxo-3,4-dihydro-2H-benzo[1,4]thiazin-6-yl)-oxazolidin-5-ylmethyl]-amino}-methyl)-5,6-dihydro-pyrrolo[1,2,3-de]quinoxalin-3-one]
MIC: ≤ 0.031 µg/mL

COC(=O)[C@H]1[C@H](NCCC[C@@H]2CN(c3ccc4c(c3)NC(=O)CS4)C(=O)O2)c2c(F)ccc3ccc(=O)n1c23 (relative stereo) [Example 181, (1R*,2R*)-9-fluoro-4-oxo-1-{3-[(R)-2-oxo-3-(3-oxo-3,4-dihydro-2H-benzo[1,4]thiazin-6-yl)-oxazolidin-5-yl]-propylamino}-1,2-dihydro-4H-pyrrolo[3,2,1-ij]quinoline-2-carboxylic acid methyl ester]
MIC: ≤ 0.031 µg/mL

CN(C)Cc1ccc2c3c1ccc(=O)n3C[C@@H]2NCCC[C@H]1CN(c2ccc3c(c2)NC(=O)CS3)C(=O)O1 [Example 122, (R)-7-dimethylaminomethyl-1-{3-[(S)-2-oxo-3-(3-oxo-3,4-dihydro-2H-benzo[1,4]thiazin-6-yl)-oxazolidin-5-yl]-propylamino}-1,2-dihydro-pyrrolo[3,2,1-ij]quinolin-4-one]
MIC: 0.5 µg/mL (≈ 0.937 µM)

Cl.Cl.O=C1CSc2ccc(N3C[C@@H](CCCNC4CN5C(=O)CN(CCCO)c6ccc(F)c4c65)OC3=O)nc2N1 (mixture of isomers) [Example 202, (RS)-7-fluoro-6-{3-[(R)-2-oxo-3-(3-oxo-3,4-dihydro-2H-pyrido[3,2-b][1,4]thiazin-6-yl)-oxazolidin-5-yl]-propylamino}-1-(3-hydroxypropyl)-1,2,5,6-tetrahydro-pyrrolo[1,2,3-de]quinoxalin-3-one dihydrochloride]
MIC: 0.063 µg/mL

O=C1COc2ccc(N3C[C@@H](CNCC4Cn5c(=O)ccc6cccc4c65)OC3=O)cc2N1 (mixture of isomers) [Example 82, (RS)-1-({[(R)-2-oxo-3-(3-oxo-3,4-dihydro-2H-benzo[1,4]oxazin-6-yl)-oxazolidin-5-ylmethyl]-amino}-methyl)-1,2-dihydro-pyrrolo[3,2,1-ij]quinolin-4-one]
MIC: 0.25 µg/mL

O=C1CSc2ccc(N3C[C@@H](CCCN[C@@H]4Cn5c(=O)cnc6ccc(F)c4c65)OC3=O)cc2N1 [Example 58, (S)-7-fluoro-6-{3-[(R)-2-oxo-3-(3-oxo-3,4-dihydro-2H-benzo[1,4]thiazin-6-yl)-oxazolidin-5-yl]-propylamino}-5,6-dihydro-pyrrolo[1,2,3-de]quinoxalin-3-one]
MIC: ≤ 0.031 µg/mL

O=C1COc2ccc(N3C[C@@H](CCCN[C@H]4Cn5c(=O)ccc6ncc(F)c4c65)OC3=O)cc2N1 [Example 140, (R)-3-fluoro-4-{3-[(R)-2-oxo-3-(3-oxo-3,4-dihydro-2H-benzo[1,4]oxazin-6-yl)-oxazolidin-5-yl]-propylamino}-4,5-dihydro-pyrrolo[3,2,1-de][1,5]naphthyridin-7-one]
MIC: ≤ 0.031 µg/mL

O=C1CSc2ccc(N3C[C@@H](CCCNC4CN5C(=O)CNc6ccc(F)c4c65)OC3=O)nc2N1 (mixture of isomers) [Example 200, (RS)-7-fluoro-6-{3-[(R)-2-oxo-3-(3-oxo-3,4-dihydro-2H-pyrido[3,2-b][1,4]thiazin-6-yl)-oxazolidin-5-yl]-propylamino}-1,2,5,6-tetrahydro-pyrrolo[1,2,3-de]quinoxalin-3-one]
MIC: ≤ 0.031 µg/mL

O=C1COc2ccc(N3C[C@@H](CCCN[C@@H]4Cn5c(=O)cnc6ccc(F)c4c65)OC3=O)nc2N1 [Example 71, (S)-7-fluoro-6-{3-[(R)-2-oxo-3-(3-oxo-3,4-dihydro-2H-pyrido[3,2-b][1,4]oxazin-6-yl)-oxazolidin-5-yl]-propylamino}-5,6-dihydro-pyrrolo[1,2,3-de]quinoxalin-3-one]
MIC: ≤ 0.031 µg/mL
